Key:
Format in all cases: in vivo
[1] = tested on: Echinochloa crus-galli (ECHCG); assay: Herbicidal glasshouse test, pre-emergence, ECHCG; conditions: 250 g/Ha, evaluated after 13 days
Description: (§1) Seeds of a variety of test species are sown in standard soil in pots (Lolium perenne (LOLPE), Setaria faberi (SETFA), Alopecurus myosuroides (ALOMY), Echinochloa crus-galli (ECHCG), Avena fatua (AVEFA)). […] Compounds are applied at 250 g/h. The test plants are then grown in a glasshouse under controlled conditions in a glasshouse (at 24/16° C., day/night; 14 hours light; 65% humidity) and watered twice daily. After 13 days for pre and post-emergence, the test is evaluated for the percentage damage caused to the plant. […] NT=not tested.

[2] = tested on: Echinochloa crus-galli (ECHCG); assay: Herbicidal glasshouse test, post-emergence, ECHCG; conditions: 250 g/Ha, evaluated after 13 days
Description: as §1

[3] = tested on: Alopecurus myosuroides (ALOMY); assay: Herbicidal glasshouse test, pre-emergence, ALOMY; conditions: 250 g/Ha, evaluated after 13 days
Description: as §1

Avena fatua (AVEFA) [4] = assay: Herbicidal glasshouse test, post-emergence, AVEFA; conditions: 250 g/Ha, evaluated after 13 days
Description: as §1

[5] = tested on: Alopecurus myosuroides (ALOMY); assay: Herbicidal glasshouse test, post-emergence, ALOMY; conditions: 250 g/Ha, evaluated after 13 days
Description: as §1

Setaria faberi (SETFA) [6] = assay: Herbicidal glasshouse test, pre-emergence, SETFA; conditions: 250 g/Ha, evaluated after 13 days
Description: as §1

Lolium perenne (LOLPE) [7] = assay: Herbicidal glasshouse test, pre-emergence, LOLPE; conditions: 250 g/Ha, evaluated after 13 days
Description: as §1

Lolium perenne (LOLPE) [8] = assay: Herbicidal glasshouse test, post-emergence, LOLPE; conditions: 250 g/Ha, evaluated after 13 days
Description: as §1

Avena fatua (AVEFA) [9] = assay: Herbicidal glasshouse test, pre-emergence, AVEFA; conditions: 250 g/Ha, evaluated after 13 days
Description: as §1

Setaria faberi (SETFA) [10] = assay: Herbicidal glasshouse test, post-emergence, SETFA; conditions: 250 g/Ha, evaluated after 13 days
Description: as §1

wheat crop plants = assay: Crop phytotoxicity comparison, post-emergence, wheat
Description: (§2) Seeds of a variety of test species are sown in standard soil in pots (Lolium perenne (LOLPE), Setaria faberi (SETFA), Alopecurus myosuroides (ALOMY), Echinochloa crus-galli (ECHCG), Avena fatua (AVEFA)). After cultivation for one day (pre-emergence) or after 8 days cultivation (post-emergence) under controlled conditions in a glasshouse (at 24/16° C., day/night; 14 hours light; 65% humidity), the plants are sprayed with an aqueous spray solution derived from the formulation of the technical active ingredient in acetone/water (50:50) solution containing 0.5% Tween 20 (polyoxyethelyene sorbitan monolaurate, CAS RN 9005-64-5). Compounds are applied at 250 g/h. The test plants are then grown in a glasshouse under controlled conditions in a glasshouse (at 24/16° C., day/night; 14 hours light; 65% humidity) and watered twice daily. After 13 days for pre and post-emergence, the test is evaluated for the percentage damage caused to the plant. The biological activities are shown in the following table on a five-point scale (5=80-100%; 4=60-79%; 3=40-59%; 2=20-39%; 1=0-19%). NT=not tested.
(§3) Using procedures outlines above, wheat and barley crop plants are treated, post-emergence with compounds A1 or A4 of the present invention or comparator compound C1 (Compound A-38 from WO2014/096289) at the application rates indicated. The compounds were also applied in conjunction with the safener compound cloquintocet-mexyl (CQC) at 50 g/ha.

barley crop plants = assay: Crop phytotoxicity comparison, post-emergence, barley
Description: as §2, §3

Row | SMILES | percentage damage caused to the plant, five-point scale, ECHCG [1] | percentage damage caused to the plant, five-point scale, ECHCG [2] | percentage damage caused to the plant, five-point scale, ALOMY [3] | percentage damage caused to the plant, five-point scale, AVEFA (Avena fatua (AVEFA) [4]) | percentage damage caused to the plant, five-point scale, ALOMY [5] | percentage damage caused to the plant, five-point scale, SETFA (Setaria faberi (SETFA) [6]) | percentage damage caused to the plant, five-point scale, LOLPE (Lolium perenne (LOLPE) [7]) | percentage damage caused to the plant, five-point scale, LOLPE (Lolium perenne (LOLPE) [8]) | percentage damage caused to the plant, five-point scale, AVEFA (Avena fatua (AVEFA) [9]) | percentage damage caused to the plant, five-point scale, SETFA (Setaria faberi (SETFA) [10]) | damage to the wheat and barley crops compared to prior art compound C1 (wheat crop plants; wheat and barley crops, summary of Table B3) | % phytotoxicity observed, Wheat (wheat crop plants; rate 30 g/ha) [%] | % phytotoxicity observed, Wheat (wheat crop plants; rate 60 g/ha) [%] | % phytotoxicity observed, Wheat (wheat crop plants; rate 60 g/ha + safener cloquintocet-mexyl (CQC) at 50 g/ha) [%] | % phytotoxicity observed, Barley (barley crop plants; rate 30 g/ha) [%] | % phytotoxicity observed, Barley (barley crop plants; rate 60 g/ha) [%]
1 | CC#Cc1cc(C)c(C2C(=O)CC3(CCN(C(=O)C(=O)OCC)CC3)CC2=O)c(C)c1 [Compound A2] | 4 (4=60-79%) | 5 (5=80-100%) | 0 | 4 (4=60-79%) | 4 (4=60-79%) | 5 (5=80-100%) | 3 (3=40-59%) | 5 (5=80-100%) | 1 (1=0-19%) | 5 (5=80-100%) | – | – | – | – | – | –
2 | CC#Cc1cc(C)c(C2C(=O)CC3(CCN(C(=O)C(=O)C(F)(F)F)CC3)CC2=O)c(C)c1 [Compound A3] | 5 (5=80-100%) | 5 (5=80-100%) | 5 (5=80-100%) | 5 (5=80-100%) | 5 (5=80-100%) | 5 (5=80-100%) | 5 (5=80-100%) | 5 (5=80-100%) | 4 (4=60-79%) | 5 (5=80-100%) | significantly less damaging | – | – | – | – | –
3 | CC#Cc1cc(C)c(C2C(=O)CC3(CCN(C(=O)C(=O)NC)CC3)CC2=O)c(C)c1 [Compound A4, 2-[9-(2,6-dimethyl-4-prop-1-ynyl-phenyl)-8,10-dioxo-3-azaspiro[5.5]undecan-3-yl]-N-methyl-2-oxo-acetamide] | 5 (5=80-100%) | 5 (5=80-100%) | 4 (4=60-79%) | 5 (5=80-100%) | 5 (5=80-100%) | 5 (5=80-100%) | 5 (5=80-100%) | 5 (5=80-100%) | 5 (5=80-100%) | 5 (5=80-100%) | – | – | – | – | – | –
4 | CC#Cc1cc(C)c(C2C(=O)CC3(CCN(C(=O)C(=O)N(C)C)CC3)CC2=O)c(C)c1 [Compound A5] | 5 (5=80-100%) | 5 (5=80-100%) | 5 (5=80-100%) | 5 (5=80-100%) | 5 (5=80-100%) | 5 (5=80-100%) | 5 (5=80-100%) | 5 (5=80-100%) | 4 (4=60-79%) | 5 (5=80-100%) | – | – | – | – | – | –
5 | CC#Cc1cc(C)c(C2C(=O)CC3(CCN(C(=O)C(=O)Nc4ccccn4)CC3)CC2=O)c(C)c1 [Compound A6] | 5 (5=80-100%) | 5 (5=80-100%) | 2 (2=20-39%) | 5 (5=80-100%) | 5 (5=80-100%) | 5 (5=80-100%) | 4 (4=60-79%) | 5 (5=80-100%) | 4 (4=60-79%) | 5 (5=80-100%) | – | – | – | – | – | –
6 | CC#Cc1cc(C)c(C2C(=O)CC3(CCN(C(=O)C(=O)C(C)(C)C)CC3)CC2=O)c(C)c1 [Compound A7] | 5 (5=80-100%) | 5 (5=80-100%) | 3 (3=40-59%) | 5 (5=80-100%) | 5 (5=80-100%) | 5 (5=80-100%) | 5 (5=80-100%) | 5 (5=80-100%) | 3 (3=40-59%) | 5 (5=80-100%) | – | – | – | – | – | –
7 | CC#Cc1cc(C)c(C2C(=O)CC3(CCN(C(=O)C(N)=O)CC3)CC2=O)c(C)c1 [Compound A8] | 5 (5=80-100%) | 5 (5=80-100%) | 5 (5=80-100%) | 5 (5=80-100%) | 5 (5=80-100%) | 5 (5=80-100%) | 5 (5=80-100%) | 5 (5=80-100%) | 5 (5=80-100%) | 5 (5=80-100%) | – | – | – | – | – | –
8 | CC#Cc1cc(C)c(C2C(=O)CC3(CCN(C(=O)C(=O)NC(C)(C)C)CC3)CC2=O)c(C)c1 [Compound A9, N-tert-butyl-2-[9-(2,6-dimethyl-4-prop-1-ynyl-phenyl)-8,10-dioxo-3-azaspiro[5.5]undecan-3-yl]-2-oxo-acetamide] | 5 (5=80-100%) | 5 (5=80-100%) | 5 (5=80-100%) | 5 (5=80-100%) | 4 (4=60-79%) | 5 (5=80-100%) | 5 (5=80-100%) | 5 (5=80-100%) | 5 (5=80-100%) | 5 (5=80-100%) | – | – | – | – | – | –
9 | CC#Cc1cc(C)c(C2C(=O)CC3(CCOCC3)CC2=O)c(C)c1 [Compound C1, reference compound] | – | – | – | – | – | – | – | – | – | – | – | 40 | 70 | 60 | 80 | 90
10 | CC#Cc1cc(C)c(C2=C(OC(=O)OC)CC3(CCN(C(=O)C(C)=O)CC3)CC2=O)c(C)c1 [Compound P1, [9-(2,6-dimethyl-4-prop-1-ynyl-phenyl)-10-oxo-3-(2-oxopropanoyl)-3-azaspiro[5.5]undec-8-en-8-yl] methyl carbonate] | 5 (5=80-100%) | 5 (5=80-100%) | 5 (5=80-100%) | 5 (5=80-100%) | 5 (5=80-100%) | 5 (5=80-100%) | 5 (5=80-100%) | 5 (5=80-100%) | 5 (5=80-100%) | 5 (5=80-100%) | – | – | – | – | – | –

— patent US12250947B2, “Substituted azaspiro-cycles as herbicides” (SYNGENTA CROP PROTECTION AG, priority 2019, dated 2025)
